US10159256B2, “Organic pruning wound composition” (The Regents of the University of California, priority 2014, dated 2018)

How the values were obtained:
Assay in all cases: Micro- and macronutrients tested against trunk disease fungi
Conditions in all cases: among all micro- and macronutrients tested
D. seriata = system: D. seriata
Description: (§1) However, these products are not registered as organic products, leaving organic growers with no alternatives for controlling trunk diseases.

E. lata = system: E. lata
Description: as §1

P. viticola = system: P. viticola
Description: as §1

Pa. chlamydospora = system: Pa. chlamydospora
Description: as §1

Pm. Alephilum = system: Pm. Alephilum
Description: as §1

[Zn] [zinc (Zn), zinc]
most effective: effectiveness against D. seriata (D. seriata) | effectiveness against E. lata (E. lata) | effectiveness against P. viticola (P. viticola) | effectiveness against Pa. chlamydospora (Pa. chlamydospora) | effectiveness against Pm. Alephilum (Pm. Alephilum)

[B] [boron (B), boron]
most effective: effectiveness against D. seriata (D. seriata) | effectiveness against E. lata (E. lata) | effectiveness against P. viticola (P. viticola) | effectiveness against Pa. chlamydospora (Pa. chlamydospora) | effectiveness against Pm. Alephilum (Pm. Alephilum)
